Data reported in patent publication US20140314857A1, “FORMULATIONS FOR ENHANCED BIOAVAILABILITY OF ZANAMIVIR” (priority 2012, published 2014).
Several values for one entry are separate records, joined by “and”; a condition that tells them apart may be missing. Equal entries are not always repeated.

Test: Intravenous and intraduodenal (bolus) bioavailability of zanamivir from Capmul MCM L8 25, 50, 75 µL (Example 7)
Conditions: for Co: extrapolated to t = 0
Excerpt: Male Sprague-Dawley rats (Hilltop Labs), 3 animals per treatment group, 250-350 grams in weight, were fitted with a jugular vein cannula (JVC). Animals intended for intraduodenal dosing were also fitted with one or more intraduodenal cannula (IDC) and those intended for intravenous dosing were fitted with a second JVC. Food was withheld from the animals for a minimum of twelve hours prior to test article administration and was returned approximately four hours post-dose. Water was supplied ad libitum.
Intraduodenal doses composed of 1.5 mg of zanamivir and varying amounts of an enhancer (glycerol or Capmul MCM L8) were injected directly into the duodenum via the IDC. Intravenous dosing was conducted by the injection of 1.5 mg of zanamivir in 200 μL of PBS through a JVC. For some experiments, the absorption enhancer was administered intraduodenally 2 hr prior to administering 1.5 mg of zanamivir in PBS through a second IDC. Each intraduodenal dose was followed with the introduction of a small air bubble (˜10 μL) in the cannula followed by a flush of 125 μL of PBS to ensure the dose was given in full. The volume of PBS used for cannula flush was consistent across the treatment groups. The cannula was tied to prevent the PBS remaining in the cannula from entering the duodenum.
Blood samples collected via the JVC, approximately 400 μL each, were obtained at 2 min, 5 min, 15 min, 30 min, 60 min, 90 min, and 120 min, with sodium heparin used as an anti-coagulant. Each sample was placed into a chilled tube containing the anticoagulant and kept on ice until centrifugation at 4° C., 3,000×g, for 5 min. The plasma supernatants were stored at −70° C. until LC-MS analysis.
Dosing solution samples were assayed by LC-MS/MS using electrospray ionization. The chromatographic system consisted of Perkin Elmer series 200 micropumps and autosampler equipped with a Waters Atlantic® HILIC Silica 3 μM, 2.1×50 mm column. The mass spectrometer was a PE Sciex API 4000 with electrospray interface in multiple reaction monitoring mode. […] Stock solutions (1 mg/mL zanamivir) were prepared in water. Standards (eight concentrations) were prepared in the appropriate matched matrix (HBSSg or Sprague-Dawley rat plasma containing sodium heparin) and diluted 50-fold with methanol. Experimental samples were treated identically.
Standards and samples were prepared in Sprague Dawley rat plasma containing sodium heparin as an anticoagulant. An eight-point calibration curve was prepared at concentrations of 1000, 750, 500, 250, 100, 50, 25, and 10 ng/mL by serial dilution. Standard samples were treated identically to the study samples.
Plasma samples were extracted by protein precipitation in methanol.
In this example, the bioavailability of Zanamivir was evaluated after intraduodenal doses in male Sprague-Dawley rats. The test compound was dosed at 1.5 mg/animal through intravenous and intraduodenal routes from normal saline and Capmul MCM L8 formulations, respectively. Plasma levels were determined by LC-MS/MS analysis. Pharmacokinetic parameters were estimated by a non-compartmental model using WinNonlin v5.2.1 software.
Each ID dose in groups 2-4 will be followed with a small air bubble ([…]) and a flush of […] of PBS to insure the dose is given in full. The volume of PBS used for cannulae flush will be maintained consistent across the animals and the treatment groups. The cannula will then be tied to help prevent the PBS remaining in the cannula from entering the duodenum.

[1] = IV 1.5 mg/animal, Normal Saline, Ex.7, individual rats

CC(=O)NC1C(NC(=N)N)C=C(C(=O)O)OC1C(O)C(O)CO (stereo not drawn) [Zanamivir, 5-acetamido-4-guanidino-6-(1,2,3-trihydroxypropyl)-5,6-dihydro-4H-pyran-2-carboxylic acid]
Plasma concentration (ID bolus 1.5 mg/animal, 25 µL Capmul MCM L8, 0.25 hr, individual rats): 1500 ng/mL and 1380 ng/mL and 655 ng/mL
Plasma concentration (ID bolus 1.5 mg/animal, 25 µL Capmul MCM L8, 0.5 hr, individual rats): 950 ng/mL and 647 ng/mL
Plasma concentration (ID bolus 1.5 mg/animal, 25 µL Capmul MCM L8, 0.83 hr, individual rats): 1960 ng/mL and 2090 ng/mL and 913 ng/mL
Plasma concentration (ID bolus 1.5 mg/animal, 25 µL Capmul MCM L8, 1.0 hr, individual rats): 378 ng/mL and 259 ng/mL
Plasma concentration (ID bolus 1.5 mg/animal, 25 µL Capmul MCM L8, 1.5 hr, individual rats): 143 ng/mL and 119 ng/mL
Plasma concentration (ID bolus 1.5 mg/animal, 25 µL Capmul MCM L8, 2.0 hr, individual rats): 78.2 ng/mL and 66.8 ng/mL
t1/2 (ID bolus 1.5 mg/animal, 25 µL Capmul MCM L8, individual rats): 26.4 min and 30.7 min
Plasma concentration (ID bolus 1.5 mg/animal, 50 µL Capmul MCM L8, Ex.7, 0.25 hr, individual rats): 1400 ng/mL and 1270 ng/mL
Plasma concentration (ID bolus 1.5 mg/animal, 50 µL Capmul MCM L8, Ex.7, 0.5 hr, individual rats): 985 ng/mL and 774 ng/mL
Plasma concentration (ID bolus 1.5 mg/animal, 50 µL Capmul MCM L8, Ex.7, 0.83 hr, individual rats): 2130 ng/mL and 1600 ng/mL
Plasma concentration (ID bolus 1.5 mg/animal, 50 µL Capmul MCM L8, Ex.7, 1.0 hr, individual rats): 708 ng/mL and 551 ng/mL
Plasma concentration (ID bolus 1.5 mg/animal, 50 µL Capmul MCM L8, Ex.7, 1.5 hr, individual rats): 299 ng/mL and 217 ng/mL
Plasma concentration (ID bolus 1.5 mg/animal, 50 µL Capmul MCM L8, Ex.7, 2.0 hr, individual rats): 158 ng/mL and 99.5 ng/mL
t1/2 (ID bolus 1.5 mg/animal, 50 µL Capmul MCM L8, Ex.7, individual rats): 27.7 min and 24.3 min
Plasma concentration (IV 1.5 mg/animal, Normal Saline, Ex.7, 0.033 hr, individual rats): 22900 ng/mL and 20400 ng/mL
Plasma concentration (IV 1.5 mg/animal, Normal Saline, Ex.7, 0.083 hr, individual rats): 12300 ng/mL and 13500 ng/mL
Plasma concentration (IV 1.5 mg/animal, Normal Saline, Ex.7, 0.25 hr, individual rats): 9620 ng/mL and 11600 ng/mL
Plasma concentration (IV 1.5 mg/animal, Normal Saline, Ex.7, 0.5 hr, individual rats): 5500 ng/mL and 6450 ng/mL
Plasma concentration (IV 1.5 mg/animal, Normal Saline, Ex.7, 1.0 hr, individual rats): 1520 ng/mL and 2190 ng/mL
Plasma concentration (IV 1.5 mg/animal, Normal Saline, Ex.7, 1.5 hr, individual rats): 661 ng/mL and 862 ng/mL
Plasma concentration (IV 1.5 mg/animal, Normal Saline, Ex.7, 2.0 hr, individual rats): 220 ng/mL and 432 ng/mL
Co [1]: 32061 ng/mL and 34657 ng/mL and 26863 ng/mL
Co (IV 1.5 mg/animal, Normal Saline, Ex.7, mean): 31194 ± 3968 ng/mL and 31194 ng/mL
CL [1]: 10.7 mL/min/kg and 9.52 mL/min/kg
T1/2 [1]: 21.5 min and 25.6 min
Vss [1]: 0.260 L/kg and 0.278 L/kg
half-life (male, Sprague-Dawley, rat, in vivo, 1.5 mg, average half-life, ID bolus 1.5 mg/animal, 75 µL Capmul MCM L8): 24.9 ± 3.78 min
bioavailability (male, Sprague-Dawley, rat, in vivo, 1.5 mg, overall percent bioavailability): 25%
half-life (male, Sprague-Dawley, rat, in vivo, 1.5 mg, t1/2, ID bolus 1.5 mg/animal, 25 µL Capmul MCM L8, individual rats): 24.5 min
half-life (male, Sprague-Dawley, rat, in vivo, 1.5 mg, t1/2, ID bolus 1.5 mg/animal, 25 µL Capmul MCM L8, mean): 27.2 ± 3.18 min
half-life (male, Sprague-Dawley, rat, in vivo, 1.5 mg, t1/2, ID bolus 1.5 mg/animal, 50 µL Capmul MCM L8, Ex.7, individual rats): 21.8 min
half-life (male, Sprague-Dawley, rat, in vivo, 1.5 mg, t1/2, ID bolus 1.5 mg/animal, 50 µL Capmul MCM L8, Ex.7, mean): 24.6 min
half-life (male, Sprague-Dawley, rat, in vivo, 1.5 mg, t1/2, intraduodenal bolus, 1.5 mg/animal, 75 μL Capmul MCM L8, mean of 3 rats): 24.9 min
half-life (male, Sprague-Dawley, rat, in vivo, 1.5 mg, t1/2, intraduodenal bolus, 1.5 mg/animal, 75 μL Capmul MCM L8, rat 963): 29.2 min
half-life (male, Sprague-Dawley, rat, in vivo, 1.5 mg, t1/2, intraduodenal bolus, 1.5 mg/animal, 75 μL Capmul MCM L8, rat 964): 21.9 min
half-life (male, Sprague-Dawley, rat, in vivo, 1.5 mg, t1/2, intraduodenal bolus, 1.5 mg/animal, 75 μL Capmul MCM L8, rat 965): 23.6 min
half-life (male, Sprague-Dawley, rat, in vivo, 1.5 mg, t1/2, summary, intraduodenal, 1.5 mg/animal, 25 μL Capmul MCM L8): 27.2 min
half-life (male, Sprague-Dawley, rat, in vivo, 1.5 mg, t1/2, summary, intraduodenal, 1.5 mg/animal, 50 μL Capmul MCM L8): 24.6 min
half-life (male, Sprague-Dawley, rat, in vivo, 1.5 mg, t1/2, summary, intraduodenal, 1.5 mg/animal, 75 μL Capmul MCM L8): 24.9 min
Tmax (male, Sprague-Dawley, rat, in vivo, 1.5 mg, tmax, intraduodenal bolus, 1.5 mg/animal, 75 μL Capmul MCM L8, rat 964): 15 min
concentration at 0.25 hr (male, Sprague-Dawley, rat, in vivo, 1.5 mg/animal, Plasma concentration, ID bolus 1.5 mg/animal, 25 µL Capmul MCM L8, 0.25 hr, mean): 1180 ng/mL
concentration at 0.5 hr (male, Sprague-Dawley, rat, in vivo, 1.5 mg/animal, Plasma concentration, ID bolus 1.5 mg/animal, 25 µL Capmul MCM L8, 0.5 hr, individual rats): 916 ng/mL
concentration at 0.5 hr (male, Sprague-Dawley, rat, in vivo, 1.5 mg/animal, Plasma concentration, ID bolus 1.5 mg/animal, 25 µL Capmul MCM L8, 0.5 hr, mean): 838 ng/mL
concentration at 0.83 hr (male, Sprague-Dawley, rat, in vivo, 1.5 mg/animal, Plasma concentration, ID bolus 1.5 mg/animal, 25 µL Capmul MCM L8, 0.83 hr, mean): 1650 ng/mL
concentration at 1 hr (male, Sprague-Dawley, rat, in vivo, 1.5 mg/animal, Plasma concentration, ID bolus 1.5 mg/animal, 25 µL Capmul MCM L8, 1.0 hr, individual rats): 387 ng/mL
concentration at 1 hr (male, Sprague-Dawley, rat, in vivo, 1.5 mg/animal, Plasma concentration, ID bolus 1.5 mg/animal, 25 µL Capmul MCM L8, 1.0 hr, mean): 341 ng/mL
concentration at 1.5 hr (male, Sprague-Dawley, rat, in vivo, 1.5 mg/animal, Plasma concentration, ID bolus 1.5 mg/animal, 25 µL Capmul MCM L8, 1.5 hr, individual rats): 145 ng/mL
concentration at 1.5 hr (male, Sprague-Dawley, rat, in vivo, 1.5 mg/animal, Plasma concentration, ID bolus 1.5 mg/animal, 25 µL Capmul MCM L8, 1.5 hr, mean): 136 ng/mL
concentration at 2 hr (male, Sprague-Dawley, rat, in vivo, 1.5 mg/animal, Plasma concentration, ID bolus 1.5 mg/animal, 25 µL Capmul MCM L8, 2.0 hr, individual rats): 70.7 ng/mL
concentration at 2 hr (male, Sprague-Dawley, rat, in vivo, 1.5 mg/animal, Plasma concentration, ID bolus 1.5 mg/animal, 25 µL Capmul MCM L8, 2.0 hr, mean): 71.9 ng/mL
concentration at 0.25 hr (male, Sprague-Dawley, rat, in vivo, 1.5 mg/animal, Plasma concentration, ID bolus 1.5 mg/animal, 50 µL Capmul MCM L8, Ex.7, 0.25 hr, individual rats): 2060 ng/mL
concentration at 0.25 hr (male, Sprague-Dawley, rat, in vivo, 1.5 mg/animal, Plasma concentration, ID bolus 1.5 mg/animal, 50 µL Capmul MCM L8, Ex.7, 0.25 hr, mean): 1580 ng/mL
concentration at 0.5 hr (male, Sprague-Dawley, rat, in vivo, 1.5 mg/animal, Plasma concentration, ID bolus 1.5 mg/animal, 50 µL Capmul MCM L8, Ex.7, 0.5 hr, individual rats): 1250 ng/mL
concentration at 0.5 hr (male, Sprague-Dawley, rat, in vivo, 1.5 mg/animal, Plasma concentration, ID bolus 1.5 mg/animal, 50 µL Capmul MCM L8, Ex.7, 0.5 hr, mean): 1000 ng/mL
